Data published in US4265910A (priority 1979, dated 1981).
Structures can show the parent of a compound that is named as a salt. Where two headings read alike, the source gives them in different places.

Tests used:
serum interferon = experiment: animal or person; assay type: in vivo, ICR female mice; details: Mus musculus, L929, ip, 20 h, read-out: Plaque inhibition
[1] = system: vaccinia virus (DIE strain); assay type: in vivo, ICR female mice; details: 8th day after inoculation
[2] = Acute toxicity (50% lethal dose); details: mouse, in vivo, ddY male mice 20-25 g
Text: In order to investigate acute toxicity of the ingredients of the present invention, 50% lethal dose of each ingredient was obtained by intravenous and intraperitoneal administration thereof by ddY male mice weighing 20-25 g. From the results shown in Table 5, it is understood that the ingredients had high safety margin.

Human fibroblast cells = experiment: cells; assay type: cell-based; details: read-out: Inhibition of cytolysis
[3] = ip, intraperitoneal, read-out: 50% Lethal dose, intraperitoneally administered
[4] = intravenous, read-out: 50% Lethal dose, intravenously administered

SMILES: CC(C)=CCCC(C)=CCCC(C)=CCCC(C)=CCCC(C)=CCCC(C)=CCCC(C)=CCCC(C)=CCCC(C)=CCCC(C)=CCN [Decaprenylamine hydrochloride]
- inhibition at 20 mg/kg (serum interferon): 47.1%
- inhibition at 40 mg/kg (serum interferon): 83%
- Inhibition of tail lesion ([1]; 20 mg/kg i.p., consecutively dosed (6 times)): 77.4%
- Inhibition of tail lesion ([1]; 20 mg/kg i.p., dosed one time): 76.1%
- Inhibition of tail lesion ([1]; 20 mg/kg p.o., consecutively dosed (6 times)): 56.8%
- Inhibition of tail lesion ([1]; 30 mg/kg i.p., dosed one time): 68.7%
- Inhibition of tail lesion ([1]; 30 mg/kg s.c., dosed one time): 69.7%
- Inhibition of tail lesion ([1]; 40 mg/kg i.p., consecutively dosed (6 times)): 88.2%
- Inhibition of tail lesion ([1]; 40 mg/kg i.p., dosed one time): 79.6%
- Inhibition of tail lesion ([1]; 50 mg/kg p.o., dosed one time): 24.1%
- LD50 [2, 3]: 1000 mg/kg
- LD50 [2, 4]: 39.5 mg/kg
- inhibition at 5 µg/disc (Human fibroblast cells): 64.9%

SMILES: CC(C)=CCCC(C)=CCCC(C)=CCCC(C)=CCCC(C)=CCCC(C)=CCCC(C)=CCCC(C)=CCCC(C)=CCN [Solanesylamine hydrochloride, solanesylamine hydrochloride]
- inhibition at 20 mg/kg (serum interferon): 81%
- inhibition at 40 mg/kg (serum interferon): 79.7%
- Inhibition of tail lesion ([1]; 20 mg/kg i.p., dosed one time): 35.7%
- Inhibition of tail lesion ([1]; 30 mg/kg i.p., dosed one time): 72.1%
- Inhibition of tail lesion ([1]; 30 mg/kg s.c., dosed one time): 23.2%
- Inhibition of tail lesion ([1]; 40 mg/kg p.o., dosed one time): 40.5%
- LD50 [2, 3]: > 500 mg/kg
- LD50 [2, 4]: 32.3 mg/kg
- inhibition at 5 µg/disc (Human fibroblast cells): 55.4%

SMILES: CC(C)=CCCC(C)=CCCC(C)=CCCC(C)=CCCC(C)=CCCC(C)=CCCC(C)=CCCC(C)=CCCC(C)=CCCC(C)=CCCC(C)=CCN [Undecaprenylamine hydrochloride]
- inhibition at 40 mg/kg (serum interferon): 70.3%
- Inhibition of tail lesion ([1]; 20 mg/kg i.p., dosed one time): 52.4%
- Inhibition of tail lesion ([1]; 30 mg/kg i.p., dosed one time): 40.5%
- Inhibition of tail lesion ([1]; 100 mg/kg p.o., dosed one time): 45.6%
- LD50 [2, 3]: > 1000 mg/kg
- LD50 [2, 4]: 18 mg/kg
- inhibition at 5 µg/disc (Human fibroblast cells): 83.3%
